# Reference: patent US20220205982A1 (CHILDREN'S HOSPITAL MEDICAL CENTER, priority 2019, published 2022)
# Read-outs that look alike come from different tables or passages of the source.
# Columns and labels:
# [1] = PK of melphalan in plasma by ESI-LC-MS/MS in patients undergoing HSCT; assay type: in vivo; conditions: human, intravenous
# Method: Patients undergoing HSCT were administered by intravenous infusion a low dose of melphalan (referred to as the ‘test’ dose) to first determine each patient's individualized pharmacokinetics of the drug. After that the personalized optimal full dose was calculated from these measurements and then administered. The test dose equated to 10% of the expected standard full dose for each patient. Blood samples for pharmacokinetic measurement were collected after the test dose and again after the full standard dose of melphalan. Samples were collected at baseline, 5-10 mins before drug infusion, and then 5 min, 15 min, 30 min, 45 min, 1 h, 2h, 2.5h, 4h, and 6h post-infusion. The blood samples were collected on ice and immediately transferred to the lab for PS-MS/MS analysis after collection to minimize drug degradation. Plasma samples from the same blood draw were also obtained after centrifugation at 3000 rpm for 15 min and stored at −80° C. degree until analyzed by both PS-MS/MS and LC-ESI-MS/MS.
# Each patient's pharmacokinetic profile was determined using WinNonlin v6.4 (Pharsight, Mountain View, Calif.). […]
# The PS-MS\MS method was validated in accordance with the FDA guidance for Bioanalytical Method Validation (fda.gov/downloads/Drugs/Guidance/ucm070107.pdf, May 2011), and Bansa S, et al., AAPS J., 2007, 9, 109-114. Specifically, three analytical runs were processed and analyzed to assess sensitivity, reproducibility, accuracy and precision. […] The assay accuracy was evaluated by comparing results obtained by PS-MS/MS to those obtained by a validated in-house LC-MS/MS melphalan assay for the same samples, wherein melphalan samples were measured by liquid chromatography-tandem mass spectrometry (LC-MS/MS) with selected-reaction monitoring and with the use of stable isotopic-labeled [2H8]-melphalan as the internal standard. Samples were analyzed with the LC20AD HPLC system (Shimadzu) coupled to the TSQ Quantum Ultra Triple Quadrupole Mass Spectrometer (Thermo Scientific). […]
# [2] = cited from earlier work
compound,measurement,setting,value
"N[C@@H](Cc1ccc(N(CCCl)CCCl)cc1)C(=O)O [melphalan, 4-[Bis(2-chloroethyl)amino]-L-phenylalanine]",AUC,"[1]; 10 % of the expected standard full dose, lower test doses, ESI-LC-MS/MS, n=4, read-out: calculated mean AUC",430 ± 210 ng·h/mL
same,AUC,"[1]; Full Dose, individual patients and mean row, read-out: ESI-LC-MS/MS Plasma AUC",3900 ng·h/mL
same,AUC,"[1]; full dose, ESI-LC-MS/MS method, n=5, read-out: calculated mean AUC",4300 ± 1000 ng·h/mL
same,inter-patient variability in melphalan exposure,[2]; adults undergoing autologous HCT for multiple myeloma,up to 5 fold
same,contribution of renal elimination to melphalan clearance,[2]; in vivo,low
same,penetration into cerebrospinal fluid (CSF),[2]; in vivo,low
same,steady-state volume of distribution,[2]; in vivo,about 0.5 L/kg
